Source: patent publication US20210322327A1, “EXTRACELLULAR VESICLES COMPRISING STING-AGONIST” (Codiak BioSciences, Inc., priority 2018, published 2021)

Tests used:
A20 lymphoma cells = experiment: CIVO intratumoral microinjection, cleaved caspase 3 staining; type: in vivo, BALB/cAnNHsd mice
Protocol: All experiments in mice were approved by IACUC Board of Presage Biosciences, Seattle, Wash. (Protocol number PR-001) and were performed at Presage in accordance with relevant guidelines and regulations. All relevant procedures were performed under anesthesia and all efforts were made to minimize pain and suffering. Female BALB/cAnNHsd mice (Envigo) with an average weight of 18 gm were used for experiments at 5-7 weeks of age. For generating A20 allografts, mice were inoculated with 1 million A20 cells in 100 μl inoculation volume.
CIVO intra-tumoral microinjections were performed as described in Klinghoffer et al. (2016) Science Translational Medicine. Briefly, mice (n=6 per time point, 4 and 24 hours) were enrolled in microinjection studies when implanted tumors reached the following approximate dimensions: 14 mm (length), 10 mm (width) and 7 mm (depth). […]
Images of every cell from each tissue section stained were captured by digital, automated, high-resolution whole-tissue scanning (3D Histech Panoramic 250 Flash). Tumor responses were quantified from image files from each tissue section using Presage's custom CIVO Analyzer image analysis platform. […] In order to mitigate the influence of pre-existing necrosis on biomarker measurements, injection sites that fall within largely acellular tumor regions are excluded prior to quantitative analysis. […]

B16F10 melanoma cells = experiment: B16F10 subcutaneous primary tumor growth in lung metastasis challenge study; type: in vivo, C57BL/6 mice; conditions: by day 17
Source text: Activation of the STING pathway promotes antigen presentation and induces a durable T-cell response, as shown in Examples 11 and 12. Thus, the immune memory response induced by EXOSTING™ may be sufficient to prevent tumor metastasis after a local administration in a primary tumor. To test this hypothesis, exosomes purified from HEK293SF cells overexpressing PTGFRN were loaded with the cyclic dinucleotide 3-3 cAIMPdFSH as described in Example 1. C57BL/6 mice were inoculated subcutaneously with 1×10^6 B16F10 melanoma cells on day zero and challenged with an additional tail vein injection of 1×10^5 B16F10 melanoma cells to seed lung metastases (n=8 mice per group). Five, eight, and eleven days post-inoculation the mice were injected intratumorally at the subcutaneous tumor with PBS, 20 μg 3-3 cAIMPdFSH, 120 ng 3-3 cAIMPdFSH, or either 120 ng, 12 ng, or 1.2 ng 3-3 cAIMPdFSH loaded in PTGFRN-overexpressing exosomes (Exo STING Agonist). […] Lungs from all mice were harvested, imaged, and counted for metastases. […] As little as 12 ng of Exo STING Agonist prevented lung metastasis to the same extent as 20 μg STING Agonist (FIGS. 46B and 47).

[1] = Tumor pharmacokinetics after intratumoral injection; type: in vivo, C57BL/6 mice; conditions: B16F10 tumor
Protocol: To examine the tumor pharmacokinetics of STING agonist, C57BL/6 mice were inoculated subcutaneously with 1×10^6 B16F10 murine melanoma cells (n=3 mice per group and time). Eight days post-inoculation, the tumors were injected intratumorally with 30 μg of free 3-3 cAIMPdFSH, 0.3 μg of free 3-3 cAIMPdFSH, or 0.3 μg 3-3 cAIMPdFSH loaded in PTGFRN-overexpressing exosomes. Five minutes, thirty minutes, two hours, 6 hours, 24 hours, and 48 hours after injection, tumors were excised and lysed with 6 volume of plasma. The concentration of 3-3 cAIMPdFSH was measured by LC-MS/MS, as described in Example 1. Free 3-3 cAIMPdFSH in both 30 μg and 0.3 μg was disappeared quickly from tumor, having half-life of around 10 minutes.

STING pathway = experiment: Cytokine levels after single intratumoral dose in C57BL/6 and STING knock-out tumor-bearing mice; type: in vivo, C57BL/6 mice and C57BL/6-Tmem173^gt mice; conditions: C57BL/6 mice; 20 μg intratumoral, four hours
Protocol: Three groups of C57BL/6 mice and C57BL/6-Tmem173^gt mice (4-5 mice per group) were inoculated subcutaneously with 1×10^6 B16F10 tumor cells. Eight days post-inoculation the mice were injected with a single intratumoral dose of PBS, 20 μg of free 3-3 cAIMPdFSH, or 0.1 μg of 3-3 cAIMPdFSH loaded in PTGFN-overexpressing exosomes (exeSTING). Four hours post-injection the tumors, draining lymph nodes, spleens, and serum were collected and cytokine levels were measured. […] In addition to gene expression, serum cytokine profiles are showing same trend (FIG. 58).

SMILES | cleaved caspase 3 (CC3) (A20 lymphoma cells; high dose free (printed 2 g), four and 24 hours) | cleaved caspase 3 (CC3) (A20 lymphoma cells; low dose free (printed 200 ng)) | primary tumor growth (B16F10 melanoma cells; 120 ng free) | primary tumor growth (B16F10 melanoma cells; 20 μg intratumoral days 5, 8, 11) | half-life in tumor ([1]; 0.3 μg free) | half-life in tumor ([1]; 30 μg free) | IFNβ gene expression in tumors, draining lymph node, spleen (STING pathway)
Nc1ncnc2c1ncn2[C@@H]1O[C@@H]2COP(O)(=S)O[C@@H]3C(O)[C@@H](COP(O)(=S)O[C@H]2[C@H]1O)O[C@H]3n1cnc2c(N)ncnc21 (stereo partly shown) [ML RR-S2 CDA] | dramatically increased at four and 24 hours | modest |  |  |  |  | 
Nc1ncnc2c1ncn2[C@@H]1O[C@@H]2COP(=O)(S)O[C@H]3[C@@H](F)[C@H](n4cnc5c(=O)[nH]cnc54)O[C@@H]3COP(O)(=S)O[C@H]2[C@H]1F (stereo partly shown) [3-3 cAIMPdFSH, 3′3′-cAIMPdFSH] |  |  | no tumor regression observed | did not grow | around 10 minutes | around 10 minutes | comparable in the 20 μg free STING agonist and 0.1 μg exosome-STING agonist groups
